From US7943583B2, “2-O-(β-D-glucopyranosyl) ascorbic acid, process for its production, and foods cosmetics containing compositions comprising it” (Suntory Holdings Limited, priority 2001, dated 2011)
Read-outs that look alike come from different tables or passages of the source.

Experiments:
[1] = rats; cited from earlier work
[2] = tested on: human skin epidermal keratinocytes (HaCaT); test: Intracellular ascorbic acid concentration in human skin epidermal keratinocytes (HPLC); format: cell-based; settings: 100 μM, 3-24 hours after addition, compared with 2-O-(α-D-glucopyranosyl)ascorbic acid and ascorbic acid
Protocol: Human skin epidermal keratinocyte cells HaCaT were plated onto a 100 mm diameter dish at a cell count of 370,000. After 16 hours of culturing, there was added 100 μM of 2-O-(β-D-glucopyranosyl)ascorbic acid dissolved in DMEM containing 10% FBS and 40% of 24-hour serum-free HaCaT culture solution. The medium was removed 3-24 hours after the addition, rinsing was performed twice with ice-cooled PBS, and the cell sheet was treated with trypsin to obtain the separated cells. These were suspended in PBS containing 50 μM dithiothreitol (DTT) and rinsed 3 times by centrifugation. The cells received freeze-thawing twice were crushed with a Potter-type teflon homogenizer for 30 sec on the ice. The cell homogenate was centrifuged at 5° C., and supernate thus separated was stored on the ice. The supernatant was subjected to treatment with Molcut (product of Nihon Millipore Co., Ltd.; High-pressure ultrafiltration unit, nominal molecular weight limit (NMWL): 10,000, polyethersulfone membrane), and the amount of intracellular ascorbic acid was analyzed by high performance liquid chromatography (AS-8020 System by Toso Co., Ltd., column: Shodex ODSpak (4.6×150 mm, product of Showa Denko Co., Ltd.), mobile phase: 0.1 M KH2PO4—H3PO4 (pH 2.35)-0.1 mM EDTA-2 Na, flow rate: 1.5 mL/min) using a coulometric electrochemical detector (ESA Co., Bedford, Mass., 200 mV). […]

[3] = tested on: normal human dermal fibroblast (NHDF) cells; test: Population doubling level (PDL) of normal human dermal fibroblasts; format: cell-based; settings: 100 μM
Protocol: Normal human dermal fibroblast (NHDF) cells were plated onto a 100 mm diameter dish at a cell density of 370,000. After 16 hours of culture in DMEM supplied with 10% FBS, the medium was replaced by DMEM fortified with 10% FBS and supplied with 40% of a domestic-conditioned medium containing 100 μM of 2-O-(β-D-glucopyranosyl)ascorbic acid. The cultivation was continued for 46-188 hours until cells reached a near confluent state. The domestic-conditioned medium was prepared by separately culturing NHDF cells to the state of near confluency, which was further cultivated in a serum-free medium for 24 hours, and collecting the culture supernatant, which was stored in a refrigerator and used within 3 days. In connection with the above 46-188 hours of cultivation, the medium was changed every 3 days with fresh DMEM fortified with 10% FBS and supplied with 40% of the domestic-conditioned medium containing 100 μM of 2-O-(β-D-glucopyranosyl)ascorbic acid. When medium change was made, the cell number in the old culture medium was counted and used in the PDL assessment. The number of cells adhering onto the plate was counted by Coulter counter. PDL value at the start of culture was taken as 0, and PDL values thereafter were calculated by the equation: PDL=log2(recovered cell number/seeded cell number). […]

NHDF cells = test: Reduction speed of telomere lengths (TRF Southern blot) in NHDF cells; format: cell-based, human
Protocol: The TRFs were separated by electrophoresis and the length of the telomere DNA was quantified with a labeled probe specifically binding to telomere. Details of the method used in the study is described in Life Sciences, Vol. 63, No. 11, 935-948 (1998).
The fibroblast cells (NHDF) from human skin epidermis were dispersed by treatment with trypsin, added into a 1.5 ml tube at 10^6/tube, centrifuged for 2 min. at 1,200 rpm at 4° C., and the supernatant was discarded. The pellet was washed two times with 1 ml RNase free PBS(−), the supernatant was removed as sufficiently as possible, and the cells were stored at −80° C. The frozen sample was restored to ambient temperature, genomic DNA was extracted by use of IsoQuick Nucleic Acid Extraction Kit (ORCA Research Inc.). The extracted DNA was dissolved in 10 mM Tris-HCl, 1 mM EDTA, pH8.0 to be stored at 4° C. The DNA content was determined by the fluorescent reader (Cytofluor 2350, Millipore Corporation) with the DNA binding reagent Hoechist 33258, and TRF was prepared by restricted digestion with HinfI treatment. The restricted digestion was carried out as follows. There were added into a 1.5 ml tube, 2 μl of 10× H buffer (TaKaRa, Kyoto), the solution of extracted genomic DNA (2 μg), sterilized water to make up 19 μl, and finally 1 μl of HinfI (6 U/μl, TaKaRa, Kyoto). […]

[4] = tested on: human skin epidermal keratinocytes (HaCaT); test: Protecting effect against cell death of HaCaT induced by UVB irradiation (WST-1 viable cell count); format: cell-based; settings: compared to ascorbic acid or 2-O-(α-D-glucopyranosyl)ascorbic acid at the same concentration; added at 20-100 μM 2 h before UVB 35 mJ/cm^2
Protocol: The human skin epidermal keratinocyte line HaCaT (a cell line provided by Professor Fusenig of Heidelberg University) was plated on a 24-well plate at 10,000 cells/well with Dulbecco's modified Eagle medium (DMEM) containing 10% fetal bovine serum (FBS) and after 18 hours, the cells were irradiated with UVB (maximum wavelength: 312 nm) at 35 millijoules/square centimeter (mJ/cm^2). Two hours before irradiation, 2-O-(β-D-glucopyranosyl)ascorbic acid was added at 20-100 μM and removed with rinsing just before irradiation. The irradiation was performed in PBS in the absence of chemical agents, after which culturing was continued in DMEM containing 10% FBS, and the viable cell count was determined 24 hours after irradiation by measuring the mitochondrial dehydrogenase activity using 2-(4-iodophenyl)-3-(4-nitrophenyl)-5-(2,4-disulfophenyl)-2H-tetrazolium monosodium salt (WST-1). For comparison, 2-O-(α-D-glucopyranosyl)ascorbic acid and ascorbic acid were examined in a similar manner, and the results are also shown in FIG. 5.

[5] = Intestinal absorption in rat: portal vein plasma concentrations after oral administration; format: in vivo
Protocol: A solution of 2-O-(β-D-glucopyranosyl)ascorbic acid in Milli-Q Ultrapure Water (Millipore Corporation) (100 mg/4 mL) was orally administered at a dose of 100 mg/kg by using a feeding tube to overnight-starved and awake 10-week-old male Wistar rats (n=3) purchased from Nihon Charles River Co. After 0, 0.5, 2 and 4 hours, heparinized blood samples were collected from the portal vein and the plasma from each sample was separated by centrifugation (6000×g, 10 min). After addition of an equivalent of ice-cooled 10% metaphosphoric acid (containing 40 mM deferoxamine mesylate), the mixture was centrifuged (10,000×g, 10 min) to obtain protein-removed portal vein plasma, of which the unconverted 2-O-(β-D-glucopyranosyl)ascorbic acid and ascorbic acid concentrations were measured by high performance liquid chromatography (LC-10Ai System by Shimadzu Co., Ltd., Column: Inertsil ODS-3 (GL Science Co., Ltd., 3.0×150 mm, 5 μm), mobile phase: 15% MeOH-17 mM KH2PO4/H3PO4 (pH 3.5)-5 mM tetra-n-amylammonium bromide, flow rate: 0.3 mL/min, column temperature: 35° C., detection wavelength: 254 nm). The unconverted 2-O-(β-D-glucopyranosyl)ascorbic acid and the metabolite (ascorbic acid) were found present in maximum amounts 30 minutes after administration.

[6] = tested on: normal human dermal fibroblasts (NHDF); test: Collagen synthesis by normal human dermal fibroblasts ([3H]proline incorporation, collagenase-digestible); format: cell-based; settings: 100 μM, 48 hours, compared to 2-O-(α-D-glucopyranosyl)ascorbic acid or ascorbic acid
Protocol: Normal human dermal fibroblast cells (NHDF) were plated onto a 100 mm diameter dish at a cell count of 370,000. After 16 hours of culture, there was added 100 μM of 2-O-(β-D-glucopyranosyl)ascorbic acid dissolved in DMEM medium containing 10% FBS and 40% of 24-hour serum-free NHDF culture solution. After another hour, 0.12 mL (120 μCi) of L-[2,3-^3H]proline was added and culturing was continued for 48 hours. The medium was removed after culturing, and the cell sheet was rinsed 4 times with PBS. The cells were then treated with trypsin, lysed with an alkali, and then neutralized to obtain the intracellular protein. The fraction obtained by digesting this protein with Clostridium collagenase was measured in terms of radioactivity with a liquid scintillation counter using Scintisol EX-H. The intracellular protein fraction not treated with collagenase was also measured in terms of radioactivity using a liquid scintillation counter. The difference in radioactivities was calculated and recorded as the collagen synthesizing activity. For comparison, 2-O-(α-D-glucopyranosyl)ascorbic acid and ascorbic acid were examined in a similar manner, and the results are also shown in FIG. 7.

time of maximum amount of unconverted 2-O-(β-D-glucopyranosyl)ascorbic acid in portal vein plasma ([5]; Wistar rats, oral 100 mg/kg) [min] | unconverted form in the blood upon oral ingestion ([5]; rats, oral) | collagen synthesis activity [6] | SMILES | unconverted form in the blood upon oral ingestion [1] | intracellular ascorbic acid concentration [2] | PDL of NHDF greater than in the absence of ascorbic acid derivative (PDL 20.1) [3] [times] | average reduction speed of telomere length (NHDF cells; 225 bp/PDL in the absence of any ascorbic acid derivative) [bp/PDL] | shortening of the speed of the telomere length to reduce to the critical length (NHDF cells; versus no ascorbic acid derivative) | effect of preventing cell death of HaCaT induced by UVB irradiation [4]
– | – | – | O=C1O[C@H]([C@@H](O)CO)C(O)=C1O[C@H]1O[C@H](CO)[C@@H](O)[C@H](O)[C@H]1O [2-O-(α-D-glucopyranosyl)ascorbic acid] | no detection of the unconverted form in the blood | – | – | – | – | –
30 | detected in the blood | increased activity | O=C1O[C@H]([C@@H](O)CO)C(O)=C1O[C@@H]1O[C@H](CO)[C@@H](O)[C@H](O)[C@H]1O [2-O-(β-D-glucopyranosyl)ascorbic acid] | – | maintained at a higher concentration for the longest time | 2.62 | 94 | approximately 42% | stronger effect of preventing cell death
